*1 amine or outer side, *2 acyl side, *3 side chain or, on linkers, in order; H or OH if unused. Where a SMILES comes first, the peptide text is derived from it. Side-chain parts run from the residue outwards. [ ]: non-standard residue; d: D form. The star is where a group is joined. C20 diacid = O=C(O)CCCCCCCCCCCCCCCCCCC(=O)*; γGlu = O=C(O)[C@H](CCC(=O)[*:2])N[*:1]; εLys = N[C@@H](CCCCN[*:1])C(=O)[*:2]; NMeI = CC[C@H](C)[C@H](NC)C(=O)O; pGlu = O=C1CC[C@@H](C(=O)O)N1; αMeL = CC(C)C[C@](C)(N)C(=O)O; AEEA = NCCOCCOCC(=O)O; Aib = CC(C)(N)C(=O)O

In one series the test system is CD4+ T cells. As to the kind of experiment: T cell proliferation assay. The class given is cell-based, human. Particulars: for T Cell Proliferation Assay: protein 7-10 donors with diverse MHC: responding donors / donors tested. On the procedure: This assay assessed the ability of tested antibodies or tested MAPPS peptides to activate CD4+ T cells by inducing cellular proliferation. CD8+ T cell depleted PBMC's were prepared and labeled with CFSE. Each sample was tested with media control, keyhole limpet haemocyanin (KLH; positive clinical benchmark control), tested antibodies, or tested MAPPS peptides. Cultures were incubated for 7 days. On day 7, samples were analyzed by flow cytometry.

In series [1] the test system is pre-existing antibodies (ADA) in treatment-naive normal human serum. As to the kind of experiment: Pre-existing reactivity (ACE assay format). Type of series: binding. The following applies: for Pre-existing Reactivity 90th percentile T2 inhibition >50 donors: ACE assay format. On the procedure: This assay assessed the presence of pre-existing antibodies (ADA) against the tested molecules in treatment-naive normal human serum (NHS). Diluted NHS was incubated overnight on a Pierce Streptavidin plate coated with biotinylated tested molecules. On the following day, the captured binding proteins were acid eluted, hard-coated to a Mesoscale (MSD) plate, and detected with a combination of biotin-labeled molecule and ruthenium-labeled streptavidin. If anti-drug antibodies were present, they would bind the labeled drug and the resulting signal was referred to as Tier 1 signal (expressed as electrochemiluminescence). […] The presence of pre-existing anti-drug antibodies was expressed as magnitude of the 90th percentile of Tier 2 inhibition. The 90th percentile of Tier 2 inhibition is a statistical tool to assess the magnitude of specificity of Tier 1 reactivity. This 90th percentile was used to rank molecules in terms of ADA risk.

Series [2] is described as follows: Pharmacokinetics in CD-1 mice, single 100 nmol/kg subcutaneous dose. The class given is in vivo. The following applies: mouse, plasma, sc, male CD-1 mice, mean. The method, then: Plasma concentrations of compounds were determined by LC/MS methods. For each assay, the compound and an internal standard (IS), were extracted from 100% mouse, rat, pig, or monkey plasma (70 μL) using Isopropanol-Methanol. Two distinct layers were formed upon centrifugation with the compound and the IS located in the supernatant layer. An aliquot of the supernatant (150 μL) was transferred to a Waters Sirocco Protein Precipitation Plate. The supernatant was eluted using a positive pressure manifold. The supernatant was mixed with 100-2 Water-Formic acid (400 μL) in a pretreated Sep-Pak tC18 SPE plate and eluted to waste. The peptide and IS were eluted with Acetonitrile-Formic acid (100 μL) in 2 steps (50 μL each step). The elution (40 μL) from SPE plate was mixed with diluent solution (1.875 μL 5× invitrosol and 3.125 μL 1% formic acid in water, 80 μL). A final sample (10 μl) was loaded onto a Xselect CSH C18 IS column (3.5 μm 2.1×20 mm). The column effluent was directed into a Thermo Fisher Scientific Orbitrap (Exploris 240) mass spectrometer for detection and quantitation.
Male CD-1 mice were administered a single subcutaneous dose (100 nmol/kg) of compound in 40 mM Tris-HCl 5% D-mannitol (pH 8) at a volume of 5 mL/kg. Blood was collected at 6, 24, 48, 96, 168, 240, 288, and 336 hours postdose for pharmacokinetic characterization.

Take `CC[C@H](C)[C@H](NC)C(=O)N[C@H](C(=O)N[C@@H](CC(C)C)C(=O)N[C@@H](CO)C(=O)N[C@@H](CC(C)C)C(=O)N[C@@H](CC(=O)O)C(=O)N[C@H](C(=O)N1CCC[C@H]1C(=O)N[C@H](C(=O)NCC(=O)N[C@@H](CC(C)C)C(=O)N[C@@H](CC(C)C)C(=O)N[C@@H](CCC(N)=O)C(=O)N[C@H](C(=O)N[C@@H](CC(C)C)C(=O)N[C@@H](CC(C)C)C(=O)N[C@@H](CCC(=O)O)C(=O)N[C@@H](CCC(N)=O)C(=O)N[C@@H](CCC(=O)O)C(=O)N[C@@H](CCCCN)C(=O)N[C@@H](CCC(N)=O)C(=O)N[C@@H](CCC(=O)O)C(=O)N[C@@H](CCCCN)C(=O)N[C@@H](CCC(=O)O)C(=O)N[C@@H](CCCCN)C(=O)N[C@@H](CCC(N)=O)C(=O)N[C@@H](CCC(N)=O)C(=O)N[C@@H](C)C(=O)N[C@@H](CCCCNC(=O)COCCOCCNC(=O)COCCOCCNC(=O)CC[C@H](NC(=O)CC[C@H](NC(=O)CCCCCCCCCCCCCCCCCCC(=O)O)C(=O)O)C(=O)O)C(=O)N[C@H](C(=O)N[C@@H](CC(N)=O)C(=O)N[C@@H](C)C(=O)N[C@@H](CCC(N)=O)C(=O)N[C@H](C(=O)N[C@@H](CC(C)C)C(=O)N[C@@H](C)C(=O)N[C@@H](CCC(N)=O)C(=O)N[C@H](C(N)=O)C(C)C)[C@@H](C)CC)[C@@H](C)O)[C@@H](C)CC)[C@@H](C)CC)C(C)C)C(C)C` [SEQ ID NO: 54] (H-[NMeI]VLSLDVPIGLLQILLEQEKQEKEKQQAK([AEEA-AEEA-γGlu-γGlu-C20 diacid])TNAQILAQV-NH2): the “CD4+ T cell proliferation response in donors” value in the series with CD4+ T cells (CD8+ T cell depleted PBMCs, 7 days, ten donors) is recorded as “elicited a response in four out of ten donors”. Further, the “T Cell Proliferation Assay: protein 7-10 donors with diverse MHC” value (“T Cell Proliferation Assay” for short) in the series on CD4+ T cells is recorded as 4/10.
Take “Ac-GSPSIVTS[αMeL]DVPT[Aib][αMeL]LQKILEQERAEKARQQAK([γGlu-AEEA-εLys-C20 diacid])EAAEILAQV-NH2 [SEQ ID NO: 1, Ac-GSPSIVTS αMeL DVPT Aib αMeL LQKILEQERAEKARQQAK(γE-(2-[2-(2-Amino-ethoxy)-ethoxy]-acetyl)-ϵK-CO-(CH2)18-CO2H)EAAEILAQV-NH2]”: in series [1], the “90th percentile Tier 2 inhibition (pre-existing anti-drug antibodies)” value is “higher 90th percentile Tier 2 inhibition than polypeptides comprising SEQ ID NOs: 22 and 25”; the “Pre-existing Reactivity 90th percentile T2 inhibition >50 donors” value is 37.9%. In the series on CD4+ T cells, the “T Cell Proliferation Assay” value was 0/9. Also, in series [2], the AUC0-inf was 25.7 µM·h, the CL/F is 3.94 mL/h/kg, the concentration peaked (Cmax) at 327 nM and the Tmax stood at 24 h. The compound further showed a half-life in series [2] of 1370 min.
For the compound “[pGlu]GSPSGIVTS[αMeL]DVPT[Aib][αMeL]LQKILEQERAEKARQQAK([γGlu-AEEA-εLys-C20 diacid])EAAEILAQV-NH2 [SEQ ID NO: 22, Pyr-GSPSGIVTS αMeL DVPT Aib αMeL LQKILEQERAEKARQQAK(γE-(2-[2-(2-Amino-ethoxy)-ethoxy]-acetyl)-ϵK-CO-(CH2)18-CO2H)EAAEILAQV-NH2]”, the “Pre-existing Reactivity 90th percentile T2 inhibition >50 donors” value in series [1] was determined as 14.3%. Further, the “T Cell Proliferation Assay” value in the series on CD4+ T cells is recorded as 0/9. In series [2], the AUC0-inf came to 15 µM·h, the CL/F is 6.76 mL/h/kg, the Cmax amounted to 270 nM and the Tmax came out at 24 h. The compound also had a half-life in series [2] of 1510 min.
As to “{C20 diacid-εLys-AEEA-γGlu}-GSPSIVTS[αMeL]DVPT[Aib][αMeL]LQKILEQERAEKARQQATEAAEILAQV-NH2 [SEQ ID NO: 25]”, the “Pre-existing Reactivity 90th percentile T2 inhibition >50 donors” value in series [1] was determined as 4.5%. The “T Cell Proliferation Assay” value with CD4+ T cells is 0/9. Further, in series [2], the AUC0-inf was 25 µM·h, the CL/F was 4.01 mL/h/kg, the Cmax turned out to be 366 nM and the Tmax worked out at 24 h. The half-life in series [2] is 1950 min.

These data come from patent publication US20250163119A1, “COMPOUNDS FOR THE TREATMENT OF DIABETES OR OBESITY” (Eli Lilly and Company, priority 2023, published 2025).
